Biological target: SHP2 (Homo sapiens (Human), UniProt Q06124)
Experiment: SHP2 Allosteric Inhibition Assay (DiFMUP prompt fluorescence)
Assay type: biochemical
Settings: 0.5 nM SHP2 activated with 0.5 μM peptide IRS1_pY1172(dPEG8)pY1222, substrate DiFMUP
From the text: SHP2 Allosteric Inhibition Assay
SHP2 is allosterically activated through binding of bis-tyrosyl-phosphorylated peptides to its Src Homology 2 (SH2) domains.

Chain of SHP2 (Q06124 whole entry): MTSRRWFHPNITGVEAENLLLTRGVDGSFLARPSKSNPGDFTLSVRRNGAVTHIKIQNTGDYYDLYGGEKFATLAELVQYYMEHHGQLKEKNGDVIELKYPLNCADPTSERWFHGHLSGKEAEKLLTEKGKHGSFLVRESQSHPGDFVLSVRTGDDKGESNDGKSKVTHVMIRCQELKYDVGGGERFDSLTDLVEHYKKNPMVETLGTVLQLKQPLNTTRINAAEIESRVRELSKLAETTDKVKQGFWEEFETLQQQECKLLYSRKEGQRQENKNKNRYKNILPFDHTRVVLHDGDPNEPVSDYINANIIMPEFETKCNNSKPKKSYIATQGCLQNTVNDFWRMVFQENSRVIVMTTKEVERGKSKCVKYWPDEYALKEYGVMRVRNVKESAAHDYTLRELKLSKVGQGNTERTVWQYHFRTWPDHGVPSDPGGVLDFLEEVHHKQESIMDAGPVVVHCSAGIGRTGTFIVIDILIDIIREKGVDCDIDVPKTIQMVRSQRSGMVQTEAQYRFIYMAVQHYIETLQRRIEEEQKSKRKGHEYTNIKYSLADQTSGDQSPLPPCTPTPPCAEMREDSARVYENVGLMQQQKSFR

SMILES | IC50 [nM]
NCC1(c2ccccc2)CCN(c2cnc(-c3cccc(Cl)c3Cl)c(N)n2)CC1 [Example 12] | 65
C[C@]1(N)CCN(c2cnc(-c3cccc(Cl)c3Cl)c(N)n2)C[C@@H]1O [Example 16] | 93
NCC1(c2cnccn2)CCN(c2cnc(-c3cccc(Cl)c3Cl)c(N)n2)CC1 [Example 18] | 93
Nc1nc(N2CC3CNCC32)cnc1-c1cccc(Cl)c1Cl (stereo not shown) [Example 20] | 404
CCCC1(CN)CCN(c2cnc(-c3cccc(Cl)c3Cl)c(N)n2)CC1 [Example 15] | 75
Nc1nc(N2CC3CNCC3C2)cnc1-c1cccc(Cl)c1Cl (stereo not shown) [Example 21] | 102
Nc1nc(N2CCC3NCCC3C2)cnc1-c1cccc(Cl)c1Cl (stereo not shown) [Example 10] | 908
NCC1(c2ccncc2)CCN(c2cnc(-c3cccc(Cl)c3Cl)c(N)n2)CC1 [Example 17] | 102
NCC1(c2ccccn2)CCN(c2cnc(-c3cccc(Cl)c3Cl)c(N)n2)CC1 [Example 19] | 110
Nc1nc(N2CC3C(N)C3C2)cnc1-c1cccc(Cl)c1Cl (stereo not shown) [Example 13] | 65
